Assay results taken from US8895752B2, “Alkylsulfonyl-substituted thiazolide compounds” (priority 2007, dated 2014).
Values joined by “and” are separate entries in the source; they are usually repeats but may differ in a detail not shown here. Equal entries are not always repeated. Where two headings read alike, the source gives them in different places.

Experiments:
HBV Mutant M204V = assay: 5-day transient transfection assay in Huh7 cells, intracellular HBV RI by Southern blot; type: cell-based, Hepatitis B Virus
Experimental: (§1) Activity against LMV-resistant (Allen et al., 1998) and ADV-resistant (Angus et al., 2003) HBV mutants was performed in a 5-day assay using a transient transfection method as previously described (Iyer et al., 2004). Antiviral activity was determined by quantitative Southern blot hybridization of intracellular HBV DNA replication intermediates (HBV RI).

HBV Mutant L180M/M204V = assay: as above; type: cell-based, Hepatitis B Virus
Experimental: as §1

HBV Mutant L180M = assay: as above; type: cell-based, Hepatitis B Virus
Experimental: as §1

HBV Mutant M204I = assay: as above; type: cell-based, Hepatitis B Virus
Experimental: as §1

HBV Mutant N236T = assay: as above; type: cell-based, Hepatitis B Virus
Experimental: as §1

Wild-type HBV = assay: as above; type: cell-based, Hepatitis B Virus; settings: Wild-type, Huh7 transient transfection; for EC50: read-out: EC50
2.2.15 cells = assay: Cytotoxicity by neutral red dye uptake in 2.2.15 cells; settings: confluent 2.2.15 cultures, nine daily doses, neutral red uptake
Experimental: (§2) HBV antiviral assays were conducted as previous described (Korba and Gerin, 1992).
(§3) EC50, EC90 and CC50 values (±standard deviations [S.D.]) were calculated by linear regression analysis using data combined from all treated cultures (Korba and Gerin, 1992; Okuse et al., 2005). […] Selectivity index (S.I.) was calculated as CC50/EC90 for HBV assays and CC50/EC50 for HCV assays. EC90 values were used for calculation of the S.I. in HBV assays since at least a […] depression of HBV DNA levels is typically required to achieve statistical significance in this assay system (Korba and Gerin, 1992). For combination treatments, EC50, EC90, CC50 and S.I. are presented for the first compound listed. The molar ratio of the compounds in each combination is also indicated.

HBV = HBV antiviral assay in confluent 2.2.15 cell cultures (HBV DNA, quantitative blot hybridization); type: cell-based, Hepatitis B Virus
Experimental: EC50, EC90 and CC50 values (±standard deviations [S.D.]) were calculated by linear regression analysis using data combined from all treated cultures (Korba and Gerin, 1992; Okuse et al., 2005). […] Selectivity index (S.I.) was calculated as CC50/EC90 for HBV assays and CC50/EC50 for HCV assays. EC90 values were used for calculation of the S.I. in HBV assays since at least a 3-fold depression of HBV DNA levels is typically required to achieve statistical significance in this assay system (Korba and Gerin, 1992).

[1] = Primary HCV replicon cell assay, cytotoxicity; settings: human, HCV replicon cells (primary assay), CC50, primary assay
Experimental: (§4) Antiviral activity of test compounds was assessed in a 3-day assay using the stably-expressing HCV replicon cell line, AVA5 (sub-genomic CON1, genotype 1b) (Blight et al., 2000) maintained as sub-confluent cultures on 96-well plates as previously described (Okuse et al., 2005). Antiviral activity was determined by blot hybridization analysis of intracellular HCV RNA (normalized to the level of cellular B-actin RNA in each culture sample) and cytotoxicity was assessed by neutral red dye uptake after 3 days of treatment. Additional studies were performed using Huh7 cells containing another HCV replicon, H/FL-Neo, a genotype 1a full length construct (Blight et al., 2003). For studies involving human serum, standard culture medium (which contains 10% fetal bovine serum) and assay conditions were maintained.
as §3

HCV replicon = assay: Primary HCV replicon cell assay; type: cell-based, Hepatitis C Virus
Experimental: as §4, §3

[2] = Cytotoxicity by neutral red dye uptake in 2.2.15 cells; settings: human
Experimental: as §2, §3

[3] = test system: HCV replicon, sub-genomic CON1, genotype 1b; assay: 3-day HCV replicon assay in AVA5 cells (intracellular HCV RNA, blot hybridization); type: cell-based, Hepatitis C Virus; settings: Genotype 1b replicon, 3 days; first compound listed for combinations
Experimental: as §4, §3

AVA5 cells = assay: Cytotoxicity by neutral red dye uptake in AVA5 cells; type: cell-based; settings: Genotype 1b replicon, 3 days
[4] = 2.2.15 cells, nine daily doses, read-out: Extracellular virion DNA EC50
[5] = 2.2.15 cells, nine daily doses, read-out: Extracellular virion DNA EC90
[6] = 2.2.15 cells, nine daily doses, read-out: Intracellular HBV RI EC50
[7] = 2.2.15 cells, nine daily doses, read-out: Intracellular HBV RI EC90

With `CSc1cnc(NC(=O)c2ccccc2O)s1` as the molecule, how does the melting point read?
The melting point was 225 to 226 °C.

Which melting point does the source give for `CCCCSc1cnc(NC(=O)c2ccccc2OC(C)=O)s1` here?
Its melting point is 100 to 101 °C.

For `CCCCSc1cnc(NC(=O)c2ccccc2O)s1`, which melting point is on record?
Its melting point is 180 to 181 °C.

For `CCCCS(=O)(=O)c1cnc(NC(=O)c2ccccc2O)s1`, which melting point is on record?
The melting point was 235 to 236 °C.

Which melting point does the source give for `CSc1cnc(NC(=O)c2ccc(OC(C)=O)cc2)s1` here?
Its melting point is 193.3 to 195.5 °C and 193.5 to 195.5 °C.

For `CSc1cnc(NC(=O)c2cccc(OC(C)=O)c2)s1`, which melting point is on record?
Its melting point is 135.2 to 136.2 °C.

Which results are given for `CC(C)(C)C(=O)OCOP(=O)(COCCn1cnc2c(N)ncnc21)OCOC(=O)C(C)(C)C` [ADV, adefovir dipovoxil]?
EC50 (HBV Mutant M204V; M204V, read-out: EC50): 1.5 ± 0.2 µM; EC90 (HBV Mutant M204V; M204V, read-out: EC90): 7.2 ± 0.8 µM; EC50 (HBV Mutant L180M/M204V; L180M/M204V, read-out: EC50): 2.5 ± 0.3 µM; EC90 (HBV Mutant L180M/M204V; L180M/M204V, read-out: EC90): 7.6 ± 0.8 µM; EC50 (HBV Mutant L180M; L180M, read-out: EC50): 2.6 ± 0.3 µM; EC90 (HBV Mutant L180M; L180M, read-out: EC90): 7.3 ± 0.8 µM; EC50 (HBV Mutant M204I; M204I, read-out: EC50): 2.5 ± 0.3 µM; EC90 (HBV Mutant M204I; M204I, read-out: EC90): 8.5 ± 1 µM; EC50 (HBV Mutant N236T; N236T, read-out: EC50): 11 ± 1.3 µM; EC90 (HBV Mutant N236T; N236T, read-out: EC90): 32 ± 3.6 µM; EC90 (Wild-type HBV): 7 ± 0.8 µM; EC50 (Wild-type HBV): 2 ± 0.2 µM; CC50 (2.2.15 cells): > 300 µM; EC50 (HBV; [4]): 1 ± 0.2 µM; EC90 (HBV; [5]): 3 ± 0.3 µM

Which results are given for `CC(=O)Oc1ccccc1C(=O)Nc1ncc(S(C)(=O)=O)s1` [Compound 7, 2-(5-(methylsulfonyl)thiazol-2-ylcarbamoyl)phenyl acetate]?
CC50 at 3 days [1]: 20 µM; EC50 (HCV replicon; Hepatitis C virus): > 10 µM; EC90 (HCV replicon; Hepatitis C virus): > 10 µM

Which CC50 at 3 days [1] does the source give for `CS(=O)(=O)Oc1ccccc1C(=O)Nc1nccs1` [Compound 11, 2-(thiazol-2-ylcarbamoyl)phenyl methanesulfonate] here?
Its CC50 at 3 days is > 100 µM.

And the melting point?
The melting point was 185.5 to 187.8 °C.

And the EC50 (HCV replicon; Hepatitis C virus)?
The EC50 was > 10 µM.

And the EC90 (HCV replicon; Hepatitis C virus)?
The EC90 was > 10 µM.

With `CS(=O)(=O)c1csc(NC(=O)c2ccccc2O)n1` [Compound 60, 2-hydroxy-N-(4-(methylsulfonyl)thiazol-2-yl)benzamide] as the molecule, how does the EC90 (HCV replicon) read?
The EC90 was 0.654 µM.

And the EC90 (HCV replicon; Hepatitis C virus)?
Its EC90 is 0.585 µM.

Which CC50 at 3 days [1] does the source give for `CC(=O)Oc1ccccc1C(=O)Nc1nc(S(C)(=O)=O)cs1` [Compound 62, 2-{[4-(methylsulfonyl)-1,3-thiazol-2-yl]carbamoyl}phenyl acetate] here?
The CC50 at 3 days was > 100 µM.

And the EC50 (HCV replicon; Hepatitis C virus)?
The EC50 was > 10 µM.

And the EC90 (HCV replicon; Hepatitis C virus)?
Its EC90 is > 10 µM.

Which EC50 (HBV Mutant M204V; Hepatitis B virus, Huh-7) does the source give for `Nc1ccn([C@@H]2CS[C@H](CO)O2)c(=O)n1` [LMV, lamivudine] here?
The EC50 was > 100 µM.

And the EC90 (HBV Mutant M204V; Hepatitis B virus, Huh-7)?
The EC90 was > 100 µM.

And the EC50 (HBV Mutant L180M/M204V; Hepatitis B virus, Huh-7)?
The EC50 was > 100 µM.

And the EC90 (HBV Mutant L180M/M204V; Hepatitis B virus, Huh-7)?
Its EC90 is > 100 µM.

What about the EC50 (HBV Mutant L180M; Hepatitis B virus, Huh-7) of the same molecule?
Its EC50 is 16 ± 2 µM.

And the EC90 (HBV Mutant L180M; Hepatitis B virus, Huh-7)?
The EC90 was 46 ± 5.6 µM.

And the EC50 (HBV Mutant M204I; Hepatitis B virus, Huh-7)?
Its EC50 is > 100 µM.

And the EC90 (HBV Mutant M204I; Hepatitis B virus, Huh-7)?
The EC90 was > 100 µM.

What about the EC50 (HBV Mutant N236T; Hepatitis B virus, Huh-7) of the same molecule?
Its EC50 is 0.3 ± 0.1 µM.

What about the EC90 (HBV Mutant N236T; Hepatitis B virus, Huh-7) of the same molecule?
The EC90 was 1.2 ± 0.2 µM.

What about the EC90 (Wild-type HBV; Hepatitis B virus, Huh-7) of the same molecule?
Its EC90 is 0.9 ± 0.2 µM.

What about the EC50 (Wild-type HBV; Hepatitis B virus, Huh-7) of the same molecule?
The EC50 was 0.2 ± 0.1 µM.

What about the CC50 at 9 days [2] of the same molecule?
The CC50 at 9 days was 2350 ± 88 µM.

What about the “Selectivity Index Virion” value (HBV; CC50/EC90, extracellular virion DNA) of the same molecule?
Its value is 15646.

What about the “Selectivity Index RI” value (HBV; CC50/EC90, intracellular HBV RI) of the same molecule?
The value was 4267.

What about the EC50 (HBV; Hepatitis B virus, read-out: Intracellular HBV RI EC50) of the same molecule?
The EC50 was 0.16 ± 0.03 µM.

And the EC50 (HBV; Hepatitis B virus, 2.2.15 cells, Table 3 experiment, read-out: HBV R.I. EC50)?
The EC50 was 0.16 ± 0.02 µM.

And the EC90 (HBV; Hepatitis B virus, 2.2.15 cells, Table 3 experiment, read-out: HBV R.I. EC90)?
The EC90 was 0.56 ± 0.07 µM.

And the EC50 (HBV; Hepatitis B virus, 2.2.15 cells, Table 3 experiment, read-out: Virion production EC50)?
Its EC50 is 0.05 ± 0.01 µM.

What about the EC90 (HBV; Hepatitis B virus, 2.2.15 cells, Table 3 experiment, read-out: Virion production EC90) of the same molecule?
Its EC90 is 0.15 ± 0.02 µM.

And the EC50 (HBV; Hepatitis B virus, 2.2.15 cells, nine daily doses, read-out: Extracellular virion DNA EC50)?
The EC50 was 0.05 ± 0.01 µM.

And the EC90 (HBV; Hepatitis B virus, 2.2.15 cells, nine daily doses, read-out: Extracellular virion DNA EC90)?
Its EC90 is 0.15 ± 0.02 µM.

And the EC90 (HBV; Hepatitis B virus, 2.2.15 cells, nine daily doses, read-out: Intracellular HBV RI EC90)?
The EC90 was 0.55 ± 0.06 µM.

For `O=C(Nc1ncc(Cl)s1)c1ccccc1O` [RM4848], which EC50 [3] is on record?
The EC50 was > 20 µM.

What about the EC90 [3] of the same molecule?
Its EC90 is > 20 µM.

And the CC50 (2.2.15 cells)?
Its CC50 is > 100 µM.

And the EC50 (HBV; [4])?
Its EC50 is 0.37 ± 0.07 µM.

What about the EC90 (HBV; [5]) of the same molecule?
The EC90 was 1.7 ± 0.2 µM.

And the CC50 (AVA5 cells)?
Its CC50 is 15 ± 0.1 µM.

Which results are given for `Cc1cccc(C(=O)Nc2ncc(Cl)s2)c1O` [RM4851]?
EC50 [3]: > 20 µM; EC90 [3]: > 20 µM; CC50 (2.2.15 cells): > 100 µM; EC50 (HBV; [4]): > 10 µM; EC90 (HBV; [5]): > 10 µM; EC50 (HBV; [6]): > 10 µM; EC90 (HBV; [7]): > 10 µM; CC50 (AVA5 cells): 5.6 ± 0.3 µM

For `Cc1ccc(C(=O)Nc2ncc(Cl)s2)c(O)c1` [RM4852], which EC50 [3] is on record?
Its EC50 is > 20 µM.

And the EC90 [3]?
The EC90 was > 20 µM.

And the CC50 (2.2.15 cells)?
The CC50 was > 100 µM.

What about the EC50 (HBV; [4]) of the same molecule?
The EC50 was 1 ± 0.1 µM.

And the EC90 (HBV; [5])?
The EC90 was 3.3 ± 0.3 µM.

And the EC50 (HBV; [6])?
Its EC50 is 2.7 ± 0.3 µM.

And the EC90 (HBV; [7])?
Its EC90 is 6.3 ± 0.7 µM.

What about the CC50 (AVA5 cells) of the same molecule?
The CC50 was 6.7 ± 0.4 µM.
